Data taken from publication PMC5751249, “Anti-Diabetic Effect of Organo-Chalcogen (Sulfur and Selenium) Zinc Complexes with Hydroxy-Pyrone Derivatives on Leptin-Deficient Type 2 Diabetes Model ob/ob Mice” (International Journal of Molecular Sciences, 2017).

How the values were obtained:
[1] = test system: male ICR mice; set-up: method as in doi:10.1248/jhs1956.39.4_289; conditions: six days per week, 30 days, cited from earlier work
[2] = test system: type 2 diabetic ob/ob mice; assay: Oral glucose tolerance test (OGTT) after 28 days treatment; type: in vivo
Method: After treatment with [Zn(hmpt)2] or [Zn(hmps)2] for 28 days, OGTTs were performed. The ob/ob mice and +/+ mice were fasted for 12-h and glucose (1 g/kg body weight) was given orally. Blood samples were obtained from the tail vein at 0, 15, 30, 45, 60, 90, and 120 min after glucose administration. Blood glucose concentrations were measured using a Glucocard.

[3] = test system: type 2 diabetic ob/ob mice; type: in vivo
Method: (§1) After OGTT, HbA1c levels were measured in blood obtained from the mouse tail vein using an immunoassay with a DCA 2000 analyzer (Bayer-Sankyo Co., Ltd., Tokyo, Japan). The mice were subjected to a 12-h fast and blood samples were collected from the orbital vein or postcaval vein under isoflurane anesthesia using heparinized tools. Collected samples were then centrifuged at 650× g for 10 min at 4 °C, and the resultant plasma samples were used to analyze various biochemical parameters. The levels of AST, ALT, BUN, TG, T-CHO, and ALP in plasma samples were determined using a Fuji Dry Chem system. The plasma levels of insulin and adiponectin were determined using an ultra-sensitive Mouse Insulin ELISA Kit (Morinaga Institute of Biological Science, Inc., Kanagawa, Japan) and an adiponectin immunoassay kit (R&D Systems Inc., Minneapolis, MN, USA), respectively. After collecting the blood samples, mice were subjected to dissection under isoflurane anesthesia, and the resultant tissue samples were washed in saline. Each of the samples was dehydrated for a week in desiccators, weighed, and then heated in 5% HNO3 (5 mL) for 5 h at 110 °C in a closed system. The resultant solution was centrifuged at 1250× g for 15 min, and the supernatant was diluted using 5% HNO3. Both Zn and Se concentrations in organs were determined with an ICP-MS Agilent 7700x/Mass Hunter instrument (Agilent Technologies Inc., Santa Clara, CA, USA). The Zn and Se concentrations in each sample were calculated using linear regression of the standard curves prepared from standard solutions of the respective trace elements.

[4] = test system: type 2 diabetic ob/ob mice; assay: Daily oral treatment of ob/ob mice for 28 days: blood glucose, body weight, water intake; type: in vivo
Method: The anti-diabetic effects of both [Zn(hmpt)2] and [Zn(hmps)2] were examined in ob/ob mice. The ob/ob and +/+ mice were used as type 2 diabetic and normal (non-diabetic) mice, respectively. The ob/ob (10-week-old) and +/+ (10-week-old) mice received daily oral treatment of either Zn complexes dissolved in PEG-400 or PEG-400 only, respectively. The mice received oral treatments of [Zn(hmpt)2] or [Zn(hmps)2] at doses of 2.5–10 mg Zn/kg or 1.0–5.0 mg Zn/kg for 28 days, respectively. Blood glucose levels (BGL) were measured using a Glucocard (Arkray, Kyoto, Japan) just before treatment with the Zn complexes, and the doses were regulated based on the BGL. Over 28 days, BGL, body weight, food intake, and water intake were measured every day. The number of normal mice (+/+ mice), control mice (ob/ob mice), [Zn(hmpt)2]-treated, and [Zn(hmps)2]-treated mice was 6, 8, 8, and 8 in the initial animal experiments, respectively. This was modified to 6, 6, 7, and 8 after the end of experiments as two control mice died naturally by the end of experiments, and one [Zn(hmpt)2]-treated mouse died from an accident during the oral glucose tolerance test.

[5] = test system: Isolated male Wistar rat epididymal adipocytes; set-up: method as in PMID 29843022; conditions: 20 μM Zn complex, means ± SDs, three runs; cited from earlier work
[6] = test system: type 2 diabetic ob/ob mice; assay: Triglyceride and glycogen contents in the liver; type: in vivo; conditions: ob/ob mice after 28 days oral treatment
Method: Lipids in the liver were extracted according to modified Folch method. TG in the extracted lipids was detected using the triglyceride E test wako (Wako Pure Chemicals Co., Osaka, Japan). Glycogen in the liver was extracted with a strong base (30% KOH aq). Then, ethanol precipitation methods (using 95% ethanol and saturated Na2SO4), hydrolysis, and neutralization (with 2.4 M HCl aq and 0.8 M NaOH aq) of the glycogen extracts were performed, resulting in degradation to glucose solution. To detect the glucose levels in the solution using the glucose CII test wako (Wako Pure Chemicals Co., Osaka, Japan), glycogen levels in the liver were estimated. Because the liver sample of normal mice was used up during TG detection and ICP-MS analysis, glycogen content in the liver could not be detected.

[7] = Organ distribution of Zn and Se by ICP-MS after 28 days oral treatment; type: in vivo, mice
Method: as §1

[8] = test system: type 2 diabetic ob/ob mice; assay: Histopathology and morphometric analysis of pancreas and liver (HE staining); type: in vivo; conditions: 14-week-old mice
Method: Excised pancreas and liver from 14-week-old mice were immediately fixed in 10% buffered formalin for a week, sectioned at a thickness of 3 μm, and stained with HE for histopathological examination. HE-stained tissue sections were scanned using a Moticam T2 (Shimadzu Co., Kyoto, Japan) to prepare digital images. Both pancreatic islet area and glycogen and fat deposition areas were calculated with the dedicated image processing software WinROOF (Mitani Corp., Tokyo, Japan).

N[C@@H](C[SeH])C(=O)O (racemic) [D,L-selenocysteine]
Lethality ([1]; oral once daily 30 mg/kg/day (13.9 mg Se/kg/day)): 100%
Hepatic histology finding ([1]; oral once daily 30 mg/kg/day): vacuolation of centrilobular and peripheral hepatocytes

Cc1occc(=[Se])c1[O-].Cc1occc(=[Se])c1[O-].[Zn+2] [[Zn(hmps)2], bis(3-hydroxy-2-methyl-4(H)-pyran-4-seleno)Zn]
Area under the blood glucose concentration-time curve (AUC) in OGTT ([2]; 1 g glucose/kg oral, after 28 days treatment, compared with control mice): significantly decreased
Fasting blood glucose level (0 min of OGTT) ([2]; ob/ob mice after 28 days oral treatment, 12-h fast, control 237 ± 52 mg/dL): 172 ± 38 mg/dL
ALP (plasma) ([3]; mouse, in vivo, po): 550 ± 89 **^,##,†† U/L
ALT (plasma) ([3]; mouse, in vivo, po): 355 ± 138 **^,##,†† U/L
AST (plasma) ([3]; mouse, in vivo, po): 200 ± 55 **^,##,†† U/L
BUN (plasma) ([3]; mouse, in vivo, po): 24 ± 3 **^,## mg/dL
Insulin (fasting plasma) ([3]; ob/ob mice after 28 days oral treatment, control 2.2 ± 1.0): 1.4 ± 0.6 ng/mL
HbA1c ([3]; ob/ob mice after 28 days oral treatment, control 7.9 ± 0.8): 6.7 ± 0.4 **^,## %
Adiponectin (plasma) ([3]; ob/ob mice after 28 days oral treatment, control 8.2 ± 1.1): 9.0 ± 0.8 µg/mL
TG (plasma) ([3]; ob/ob mice after 28 days oral treatment, control 83 ± 16): 87 ± 11 mg/dL
T-CHO (plasma) ([3]; ob/ob mice after 28 days oral treatment, control 195 ± 16): 186 ± 16 mg/dL
Blood glucose level by the end of treatment ([4]; [Zn(hmpt)2] 2.5–10 mg Zn/kg, [Zn(hmps)2] 1.0–5.0 mg Zn/kg): approximately 200 mg/dL
Water intake on the final day ([4]; control 12.6 ± 1.6 g, p < 0.01 vs. control): 6.9 ± 0.5 g
Body weight change during treatment ([4]; loss seen day 22 to 25, recovered after dose reduction): Body weight gains
Glucose Uptake [5]: 138 ± 6 µg/10^6 Cells
Glycogen content in the liver ([6]; control 0.08 ± 0.04): 0.04 ± 0.01 mg/g liver
TG content in the liver ([6]; control 437 ± 139): 443 ± 42 mg/g liver
Δ[Zn]/Δ[Se] molar ratio, bone ([7]; [Zn(L)] = 1.0, [Zn(L)2] = 0.5): 6.9
Δ[Zn]/Δ[Se] molar ratio, kidney ([7]; [Zn(L)] = 1.0, [Zn(L)2] = 0.5): 0.25
Δ[Zn]/Δ[Se] molar ratio, liver ([7]; [Zn(L)] = 1.0, [Zn(L)2] = 0.5): 0.61
Δ[Zn]/Δ[Se] molar ratio, pancreas ([7]; [Zn(L)] = 1.0, [Zn(L)2] = 0.5): 27
Se concentration, bone ([7]; dry tissue, ob/ob mice after 28 days oral treatment, control 0.5 ± 0.2): 1.9 ± 0.6 µg/g
Se concentration, muscle ([7]; dry tissue, ob/ob mice after 28 days oral treatment, control 1.3 ± 0.4): 2.5 ± 0.4 **^,#,†† µg/g
Se concentration, liver ([7]; dry tissue, ob/ob mice after 28 days oral treatment, control 2.1 ± 0.3): 5.1 ± 0.6 µg/g
Se concentration, pancreas ([7]; dry tissue, ob/ob mice after 28 days oral treatment, control 2.3 ± 0.6): 3.4 ± 0.8 **^,##,†† µg/g
Se concentration, spleen ([7]; dry tissue, ob/ob mice after 28 days oral treatment, control 2.7 ± 0.8): 9.1 ± 2.4 **^,##,†† µg/g
Se concentration, kidney ([7]; dry tissue, ob/ob mice after 28 days oral treatment, control 6.4 ± 0.2): 12.7 ± 2.0 **^,##,†† µg/g
Zn concentration, liver ([7]; dry tissue, ob/ob mice after 28 days oral treatment, control 44 ± 5): 46 ± 6 ^##^,† µg/g
Zn concentration, muscle ([7]; dry tissue, ob/ob mice after 28 days oral treatment, control 47 ±10): 41 ± 2 µg/g
Zn concentration, kidney ([7]; dry tissue, ob/ob mice after 28 days oral treatment, control 67 ± 3): 68 ± 4 µg/g
Zn concentration, spleen ([7]; dry tissue, ob/ob mice after 28 days oral treatment, control 100 ± 17): 95 ± 12 µg/g
Zn concentration, pancreas ([7]; dry tissue, ob/ob mice after 28 days oral treatment, control 133 ± 19): 158 ± 28 µg/g
Zn concentration, bone ([7]; dry tissue, ob/ob mice after 28 days oral treatment, control 154 ± 7): 162 ± 10 *^,^†† µg/g
Δ[Se], bone ([7]; mouse, in vivo, po): 18 nmol/g
Δ[Se], kidney ([7]; mouse, in vivo, po): 81 nmol/g
Δ[Se], liver ([7]; mouse, in vivo, po): 38 nmol/g
Δ[Se], pancreas ([7]; mouse, in vivo, po): 14 nmol/g
Δ[Se], plasma ([7]; mouse, in vivo, po): 6 nmol/g
Δ[Zn], bone ([7]; mouse, in vivo, po): 124 nmol/g
Δ[Zn], kidney ([7]; mouse, in vivo, po): 20 nmol/g
Δ[Zn], liver ([7]; mouse, in vivo, po): 23 nmol/g
Δ[Zn], pancreas ([7]; mouse, in vivo, po): 375 nmol/g
Δ[Zn], plasma ([7]; mouse, in vivo, po): 6 nmol/g
Se concentration, plasma ([7]; ob/ob mice after 28 days oral treatment, control 0.6 ± 0.1): 1.1 ± 0.2 **^,##,†† µg/mL
Zn concentration, plasma ([7]; ob/ob mice after 28 days oral treatment, control 2.1 ± 0.1): 2.5 ± 0.2 **^,## µg/mL
Pancreatic islet numbers per section ([8]; among normal, control and treated mice): not significantly changed
Glycogen and fat deposition area ratio in the liver ([8]; between control and treated mice): no significant differences
Pancreatic islet area ratio and size ([8]; compared with normal mice): significantly increased
